Test: In vivo delivery of lipid-nucleic acid mixture (PGY-sRNA-26) by gavage, relative intake in blood and tissues by RT-qPCR
Design: species or system C57BL/6 male mice
Details: for oral delivery of sRNA single-chain nucleic acid into the blood, and lung, kidney, spleen, and heart tissues of mice / oral delivery of sRNA single-chain nucleic acid into the blood, and lung, kidney, spleen, heart, and intestinal tissue of mice: 100 μg lipid:1 nmol PGY-sRNA-26 per mouse, 12 hrs after gavage, vs free intake group; for number of organs into which nucleic acid is significantly delivered: among the 6 organs in the experiments
Description: The concentration of a lipid solution in chloroform was 10 mg/ml (stock solution), and grouping was performed according to the lipid compound number.
1 nmol of small RNA (as shown in Table 2) was dissolved in 400 μl of DEPC-treated water in a glass tube, and 10 μl of a corresponding lipid stock solution was added, to give a system containing 100 μg of lipid. The system was well mixed, heated for 15 min in a water bath at 90° C., and then naturally cooled, to obtain a lipid-nucleic acid mixture of the lipid and small RNA.
The C57BL/6 male mice used in the experiment were purchased from Beijing Vital River Laboratory Animal Technology Co., Ltd., about 6 weeks old, and weighed 20-24 g. They were kept in an SPF animal room of the Animal Center of the Institute of Basic Medical Sciences, Chinese Academy of Medical Sciences. The mice were fasted for 12 hrs before gavage.
The lipid-nucleic acid mixture was prepared following the method as described in Example 2. The prepared lipid-nucleic acid mixture was orally administered at a dose of 100 μg lipid:1 nmol single-stranded small RNA PGY-sRNA-26 per mouse.
1) Blank group: Mice (n=4) were given 500 μl of normal saline by gavage, and this group served as a blank control group;
2) Free intake group: Mice (n=4) were given sRNA solution (1 nmol/animal, 500 μl) by direct gavage, and this group served as a negative control group;
3) Lipid treatment group: Mice (n=4) were given 500 μl of the lipid-nucleic acid mixture prepared in step 2 by gavage.
12 hrs after gavage in each group of mice, 500 μl of blood was taken from the eyeball, and 1.5 ml of Trizol Reagent LS (purchased from Invitrogen) was added and mixed well for lysis. The tissue sample was added with 3 ml of Trizol Reagent LS. and homogenized for full lysis, wherein the tissue sample included lung/kidney/spleen/heart/gut. 1 ml of blood or tissue lysate was taken and RNA was extracted according to the following steps.
The blood or tissue lysate was centrifuged at 4° C., and 12,000 rpm for 5 min, the pellet was discarded, and Trizol was transferred to a new centrifuge tube.
Chloroform was added in an amount of 200 μL chloroform/mL Trizol, shaken fully until uniform, and allowed to stand at room temperature for 5 min.
The sample was centrifuged at 4° C., and 12,000 rpm, for 15 min.
The upper aqueous phase was pipetted to another centrifuge tube, and isopropanol was added in an amount of 0.4 mL isopropanol/mL Trizol, mixed well, and allowed to stand at a low temperature for 10-20 min.
The sample was centrifuged at 4° C., and 12,000 rpm, for 15 min, the supernatant was discarded, and the RNA pellet was at the bottom of the tube.
1 mL of 75% ethanol was added, and the centrifuge tube was shaken gently, to suspend the pellet.
The sample was centrifuged at 4° C., and 12,000 rpm, for 10 min, the supernatant was discarded, 1 mL of 75% ethanol was added, and the centrifuge tube was shaken gently, to suspend the pellet.
The sample was centrifuged at 4° C., and 12,000 rpm, for 10 min, the supernatant was discarded, and the sample was air dried at room temperature. The RNA sample was dissolved in 50-100 μL of RNase-free H2O, and the RNA concentration was quantified by determining the OD value.
The sRNA was reversely transcribed into cDNA using a reverse transcription kit (High-Capacity cDNA Reverse Transcription Kits, Applied Biosystems, cat. no. 4368813), following the stem-loop method (see, for example Real-time quantification of microRNAs by stem-loop RT-PCR, Nucleic Acids Res. 2005 Nov. 27; 33(20):e179, incorporated herein by reference). System for reverse transcription: template RNA (200 ng/μL) 10 μL, 10×RT buffer 2.0 μL, 25×dNTP Mix (100 mM) 0.8 μL, U6 RT stem-loop primer 2.0 μL, PGY-sRNA-26 RT stem-loop primer 2.0 μL, MultiScribe™ reverse transcriptase 1.0 μL, RNAase inhibitor 1.0 μL, and nuclease-free water H2O 1.2 μL. […]

[1] = significant difference compared to the control, 100 μg lipid:1 nmol PGY-sRNA-26, 12 hrs

Row | Compound | oral delivery of sRNA single-chain nucleic acid into the blood, and lung, kidney, spleen, and heart tissues of mice | oral delivery of sRNA single-stranded nucleic acid into the spleen tissue of mice [1] | oral delivery of sRNA single-chain nucleic acid into the blood, and lung, kidney, spleen, heart, and intestinal tissue of mice | also measured
1 | 1,2-myristin-3-palmitin [Lipid 80] | can effectively orally deliver | can significantly efficiently orally deliver |  | number of organs into which nucleic acid is significantly delivered: two organs; oral delivery of sRNA single-stranded nucleic acid into the heart tissue of mice [1]: can significantly efficiently orally deliver
2 | 1,2-stearin-3-olein [Lipid 77] | can effectively orally deliver | can significantly efficiently orally deliver |  | 
3 | 1,3-palmitin-2-myristin [Lipid 76] | can effectively orally deliver | can significantly efficiently orally deliver |  | number of organs into which nucleic acid is significantly delivered: two organs; oral delivery of sRNA single-stranded nucleic acid into the lung tissue of mice [1]: can significantly efficiently orally deliver
4 | 1-palmitoyl-2-oleoyl-sn-glycero-3-phospho-(1′-rac-glycerol) (sodium salt) [Lipid 88] |  |  | can effectively orally deliver | oral delivery of sRNA single-stranded nucleic acid into the kidney tissue of mice [1]: can significantly efficiently orally deliver
5 | CCCCCCCC/C=C\CCCCCCCC(=O)OC[C@H](COP(=O)(O)OCCN)OC(=O)CCCCCCC/C=C\CCCCCCCC [Lipid 72, 1,2-dioleoyl-sn-glycero-3-phosphatidylethanolamine] | can effectively orally deliver |  |  | oral delivery of sRNA single-stranded nucleic acid into the lung tissue of mice [1]: can significantly efficiently orally deliver
6 | CCCCCCCCC=CCCCCCCCC(=O)OCC(COC(=O)CCCCCCCCCCCCCCCCCCC)OC(=O)CCCCCCCC=CCCCCCCCC (stereo not shown) [Lipid 78, 1,2-olein-3-arachidin] | can effectively orally deliver |  |  | 
7 | CCCCCCCCC=CCCCCCCCC(=O)OCC(COC(=O)CCCCCCCCCCCCCCCCCCCCC)OC(=O)CCCCCCCC=CCCCCCCCC (stereo not shown) [Lipid 79, 1,2-olein-3-behenin] | can effectively orally deliver | can significantly efficiently orally deliver |  | 
8 | CCCCCCCC/C=C\CCCCCCCC(=O)OC[C@H](COP(=O)([O-])OCC(O)CO)OC(=O)CCCCCCC/C=C\CCCCCCCC.[Na+] (stereo partly shown) [Lipid 81, 1,2-dioleoyl-sn-glycero-3-phosphatidylglycerol sodium salt] | can effectively orally deliver | can significantly efficiently orally deliver |  | 
9 | COC1=C(OC)C(=O)C(C/C=C(\C)CC/C=C(\C)CC/C=C(\C)CC/C=C(\C)CC/C=C(\C)CC/C=C(\C)CC/C=C(\C)CC/C=C(\C)CC/C=C(\C)CCC=C(C)C)=C(C)C1=O [Lipid 82, Q-10, Ubiquinone 50, Ubiquinone 10] |  |  | can effectively orally deliver | 
10 | CCCCCCCCCCCCCCCCOC[C@H](COP(=O)([O-])OCC[N+](C)(C)C)OC(C)=O [Lipid 84, β-acetyl-γ-O-hexadecyl-L-α-phosphatidylcholine hydrate] |  |  | can effectively orally deliver | 
11 | CCCCCCCCCCCCCCCCOC[C@H](COP(=O)([O-])OCC[N+](C)(C)C)OC(C)=O [Lipid 85, β-acetyl-γ-O-alkyl-L-α-phosphatidylcholine] |  |  | can effectively orally deliver | 

Source: patent US20230088528A1, “USE OF LIPID IN PREPARATION OF NUCLEIC ACID DELIVERY REAGENT AND RELATED PRODUCT THEREOF” (INSTITUTE OF BASIC MEDICAL SCIENCES CHINESE ACADEMY OF …, priority 2019, published 2023)
